Source: patent US20050143420A1, “Methods and compositions for the treatment and management of hemoglobinopathy and anemia” (priority 2003, published 2005)

Legend:
BM-CD34+ progenitors = experiment: Erythroid differentiation of expanded CD34+ cells with SCF and Epo; flow cytometry and cell counts; assay type: cell-based; conditions: 6 days
Description: Differentiation of bone marrow (BM) CD34^+ hematopoietic progenitor cells: BM-CD34^+ progenitors were obtained from Cambrex and cultured in Iscove's MDM with BIT 95000 (serum substitute; StemCell technologies) in the presence of growth factors. During the first 6 days CD34^+ cells were expanded with SCF (100 ng/ml), Flt3-L (100 ng/ml) and IL-3 (20 ng/ml), and then differentiated toward the erythroid lineage by culture in the presence of SCF (50 ng/ml), and Epo (2U or 4U/ml) for 6 days. To study the effect of IMiDs™, CD34^+ progenitors cells were differentiated for a period of 6 days in the presence or absence of 4-(Amino)-2-(2,6-dioxo(3-piperidyl))-isoindoline-1,3-dione or 3-(4-amino-1-oxo-1,3-dihydroisoindol-2-yl)-piperidine-2,6-dione. (FIG. 6)
Flow cytometry: Surface antigen expression was analyzed by flow cytometry (FACScan, Coulter) after 6 days of culture. Cells were processed for double staining (30 min at 4° C.) at day 6 using FITC and PE conjugated monoclonal antibodies (mAbs). Antibodies used were: CD34-PE, CD36-FITC, CD71-FITC and Glycophorin A-PE, all from BD Pharmingen (San Diego, Calif.). After 6 days of culture, cells were washed with phosphate-buffered saline (PBS), fixed with 2% paraformaldehyde, permeabilized with cytopermeafix (BD Pharmingen) and stained with HbF-PE (BD Pharmingen, San Diego, Calif.), Hbε-FITC (Cortex Biochem, San Leandro, Calif.) mAbs and HbA-FITC (Perkin Elmer) and analyzed by flow cytometry (FACScan, Coulter or FCASAria, BD Pharmingen).

[1] = Cardiovascular and respiratory function in anesthetized dogs; assay type: in vivo, Beagle dogs
Description: The effects of 3-(4-amino-1-oxo-1,3-dihydro-isoindol-2-yl)-piperidine-2,6-dione on cardiovascular and respiratory function are investigated in anesthetized dogs. Two groups of Beagle dogs (2/sex/group) are used. One group receives three doses of vehicle only and the other receives three ascending doses of 3-(4-amino-1-oxo-1,3-dihydro-isoindol-2-yl)-piperidine-2,6-dione (2, 10, and 20 mg/kg). In all cases, doses of 3-(4-amino-1-oxo-1,3-dihydro-isoindol-2-yl)-piperidine-2,6-dione or vehicle are successively administered via infusion through the jugular vein separated by intervals of at least 30 minutes.

BM-CD34+ cells [2] = experiment: CD34+ cell differentiation with SCF, Flt3-L, GM-CSF and TNFα; flow cytometry of erythroid markers; assay type: cell-based; conditions: 0.01-100 μM, six days of culture
Description: (§1) BM-CD34^+ cells were obtained from Cambrex (East Rutherford, N.J.) and cultured in Iscove's MDM with BIT 95000 (StemCell Technologies, UK) in the presence of stem cell factor (SCF), Flt3-L, granulocyte macrophage-colony stimulating factor (GM-CSF) and TNFα for 6 days. To study the effect of 4-(Amino)-2-(2,6-dioxo(3-piperidyl))-isoindoline-1,3-dione on the generation of dendritic cells, CD34^+ progenitor cells were cultured with or without 4-(Amino)-2-(2,6-dioxo(3-piperidyl))-isoindoline-1,3-dione for a period of 6 days. Phenotypic characterization of the cells for erythroid markers (CD36, CD71, glycophorin A and fetal hemoglobin) was established by flow cytometry after six days of culture. Gene expression was monitored by microarray analysis at day 1, day 3 and day 6 of CD34^+ differentiation (FIG. 1).

STAT5 = experiment: Epo-induced STAT5 phosphorylation in UT-7 cells; assay type: cell-based, human; conditions: 10 μM, 45 min pre-incubation, Epo 10 U/ml for 10 minutes
Source text: To further characterize the synergy of Epo and IMiDs™ on erythroid cells, we have performed signaling experiments in a UT-7 cell line, in particular, to determine the effect if IMiDs on the expression of STAT5, which is known to be activated upon the binding Epo to the erythropoietin receptor (EpoR). UT-7 is a human leukemia cell line absolutely dependent upon erythropoietin for proliferation, and was isolated from a patient with acute myeloid leukemia (AML M7). The level of EpoR expression in these cells is around 60%.
To study the role of IMiDs™ in Epo signaling, we stimulated UT-7 cells with Epo in the presence or absence of 4-(Amino)-2-(2,6-dioxo(3-piperidyl))-isoindoline- 1,3-dione as follows. UT-7 cells were expended in RPMI medium with 10% FBS and GM-CSF (5 ng/ml). The cells were serum and growth factor starved overnight, then pre-incubated for 45 minutes with 10 μM of 4-(Amino)-2-(2,6-dioxo(3-piperidyl))-isoindoline-1,3-dione or DMSO control, and stimulated with Epo (10 U/ml) for 10 minutes. 4-(Amino)-2-(2,6-dioxo(3-piperidyl))-isoindoline-1,3-dione increased Epo-induced STAT5 (Tyr694) phosphorylation by 2 fold (FIG. 12). This effect was detected within 10 minutes of stimulation with Epo.

CD34+ progenitor cells = experiment: Fetal hemoglobin induction in CD34+ cells with SCF and Epo, compared or combined with hydroxyurea and 5-azacytidine; assay type: cell-based; conditions: for fetal hemoglobin expression: flow cytometry
Description: FIG. 10 depicts the increase in expression of fetal hemoglobin due to 4-(Amino)-2-(2,6-dioxo(3-piperidyl))-isoindoline-1,3-dione over that induced by hydroxyurea or 5-azacytidine. Cells were cultured for six days in the presence of SCF (50 ng/ml) and Epo (2 U/ml), and either DMSO (control), 4-(Amino)-2-(2,6-dioxo(3-piperidyl))-isoindoline-1,3-dione (0.1, 1, 10 μM), 5-azacytidine (0.1, 1 μM; toxic at 10 μM) or hydroxyurea (0.1, 1, 10 μM).
As previously, CD34^+ progenitor cells were first expanded with a combination of growth factors (SCF, Flt3-L and IL-3) for 6 days, and erythroid differentiation was then induced with SCF and Epo for 6 days. During the erythroid differentiation period CD34^+ cells were cultured in the presence or absence of IMiDs™, alone or in combination with either hydroxyurea and 5-azacytidine, in order to compare the effect of IMiDs™ to these two known inducers of fetal hemoglobin synthesis. On day 6 of differentiation, the hemoglobin content of the cells was measured by flow cytometry. […] The induction of fetal hemoglobin production was, however, more pronounced with IMiD in comparison to hydroxyurea or 5-azacytidine, with a 10 fold induction in the presence of 10 μM of 4-(Amino)-2-(2,6-dioxo(3-piperidyl))-isoindoline-1,3-dione.

BM-CD34+ cells [3] = experiment: CD34+ cell differentiation with SCF, Flt3-L, GM-CSF and TNFα; microarray gene expression; assay type: cell-based
Description: as §1
RNA purification and microarray analysis. Total RNA was isolated from CD34^+ cells using RNAeasy (Qiagen). Affymetrix U133A gene chips were used for gene expression analysis. Briefly, double-stranded cDNA was synthesized using 5 μg of total RNA. Biotin-labeled cRNA was synthesized using MessageAmp aRNA kit (Ambion), 15 μg of cRNA was fragmented and hybridized to each array. The above procedures were done twice for each RNA sample to obtain replicate biotin-labeled probes. The results from the replicate chips were averaged for calculation of the fold differences.

With `Nc1cccc2c1CN(C1CCC(=O)NC1=O)C2=O` (stereo not shown) [3-(4-amino-1-oxo-1,3-dihydroisoindol-2-yl)-piperidine-2,6-dione] the “induction of hemoglobin F in erythroid precursors” value (BM-CD34+ progenitors) was “potent inducers of hemoglobin F”, the “cardiovascular and respiratory changes” value ([1]; 2, 10 and 20 mg/kg by jugular vein infusion, vs vehicle) was “minimal at all doses” and the “deviations in femoral blood flow, respiratory parameters, and Qtc interval” value ([1]; common to control and treated groups) was “not considered treatment-related”. For the same compound, the “duration of the arterial blood pressure increase” value ([1]; low dose, not seen at higher doses) was “approximately 15 minutes”, the arterial blood pressure ([1]; low dose, small increase from 94 mmHg) was 101 mmHg and the “expression of fetal hemoglobin” value (BM-CD34+ cells [2]) was “increased in a dose-dependent manner”. The “expression of glycophorin A” value (BM-CD34+ cells [2]) was “increased in a dose-dependent manner”.

With `Nc1cccc2c1C(=O)N(C1CCC(=O)NC1=O)C2=O` (stereo not shown) [4-(Amino)-2-(2,6-dioxo(3-piperidyl))-isoindoline-1,3-dione] the “adult hemoglobin (HbA) expression” value (BM-CD34+ progenitors) was “decrease”, the “induction of hemoglobin F in erythroid precursors” value (BM-CD34+ progenitors) was “potent inducers of hemoglobin F” and the “cells expressing fetal hemoglobin” value (BM-CD34+ progenitors; 0.001-10 μM, vs DMSO) was “increase”. For the same compound, the “expression of glycophorin A” value (BM-CD34+ progenitors; FACS) was “slight decrease”, the “increase of Epo-induced STAT5 (Tyr694) phosphorylation” value (STAT5) was 2 fold and the “induction of fetal hemoglobin production” value (CD34+ progenitor cells; 10 μM, day 6 of differentiation) was 10 fold. For the same compound, the “fetal hemoglobin expression in combination with hydroxyurea” value (CD34+ progenitor cells; combination with hydroxyurea, six days, SCF and Epo) was “striking synergy”, the “expression of genes encoding glycophorin B, rhesus blood group associated glycoprotein, Kell blood group precursor, EDRF/AHSP, erythroid Kruppel-like transcription factor” value (BM-CD34+ cells [3]; SCF, Flt3-L, GM-CSF and TNFα) was “upregulated” and the “gene expression profile of erythroid-specific genes” value (BM-CD34+ cells [3]; SCF, Flt3-L, GM-CSF and TNFα) was “upregulated”. The “increase of embryonic hemoglobin ε gene expression” value (BM-CD34+ cells [3]; day 6 of CD34+ differentiation, vs DMSO) was 18 fold, the “expression of fetal hemoglobin” value (BM-CD34+ cells [2]) was “increased in a dose-dependent manner” and the “expression of glycophorin A” value (BM-CD34+ cells [2]) was “increased in a dose-dependent manner”.

For `Nc1ncn([C@@H]2O[C@H](CO)[C@@H](O)[C@H]2O)c(=O)n1` [5-azacytidine, reference compound], the “toxicity to cultured CD34+ cells” value (CD34+ progenitor cells; 10 μM) was “toxic” and the fetal hemoglobin expression (CD34+ progenitor cells; day 6 of differentiation) was “increased fetal hemoglobin expression”.

In the case of `NC(=O)NO` [Hydroxyurea, hydroxyurea, reference compound], the fetal hemoglobin expression (CD34+ progenitor cells; day 6 of differentiation) is reported as “increased fetal hemoglobin expression”.
